Results published in patent publication US20260152777A1, “METHOD FOR PRODUCING EPIGALLOCATECHIN GALLATE MONOGLUCOSIDE” (GIVAUDAN SA, priority 2022, published 2026).

How the values were obtained:
[1] = tested on: female volunteers with a dark skin type (phototype IV or more) and dull skin; experiment: Clinical evaluation on African skin: skin color by Chromameter L* parameter; assay type: in vivo, human; details: cream with 0.01% of EGCG aglycone, full face twice daily, dark skin type
Method: The clinical study was carried out on 85 female volunteers aged from 19 to 47 years, which were divided in three groups: active, placebo and aglycone. The study was performed in South Africa on female volunteers with a dark skin type (phototype IV or more) and dull skin. All participants provided signed informed consent at the beginning of the study. The study was conducted according to the guidelines of the Declaration of Helsinki. […] Skin color evolution was measured after 14, 28 and 56 days using L* parameter measurement by Chromameter®.
The skin color was evaluated by means of a Chromameter CR400, which measures skin color, and the parameter L* (lightness) was recorded. The greater the value, the lighter the skin color. Depending on the test type, at least three or at least 15 readings were taken at each test sub-site for each time interval to serve as the specific pigmentation sport color measurement component of the study. Skin color was analyzed at D0, D14, D28 and D56.
For all studies in vivo, a Shapiro Wilk test was used to verify whether the raw data followed the Gaussian Law. In case of Normally-distributed data, the mean values were compared using either an unpaired or paired t student test. In case of non-Normally-distributed data, a Wilcoxon (paired) and Kruskal-Wallis test followed by a Mann-Whitney U (unpaired) test were used for paired data and unpaired data, respectively.

[2] = tested on: spontaneous formation of Advanced Glycation End-products (AGEs); experiment: Anti-glycation in tubo assay (BSA + ribose, fluorescence); assay type: biochemical; details: 17 h at 37° C.; for IC50: BSA + ribose, read-out: IC50 in well (concentration which inhibits AGEs formation by half)
Method: The anti-glycation effect was evaluated using an in tubo assay to measure the spontaneous formation of Advanced Glycation End-products (AGEs). This assay was conducted on a 96-wells microplate. […] The extracts were diluted in sodium phosphate buffer (0.1 M, pH 7.4). Several dilutions were tested. Each diluted extract was run in triplicate. A standard range of aminoguanidine was used as inhibitor reference (positive control). A mixture of the sodium phosphate buffer and BSA was used to validate the experiment and a mixture of sodium phosphate buffer, BSA and ribose was used as the positive control. Two blanks were carried out for the extract: • with phosphate buffer, BSA and extract • with phosphate buffer, ribose and extract The microplate was agitated and incubated for 17 h at 37° C. The fluorescence reading was performed with ? excitation 340 nm and ? emission 420 nm. The anti-glycation activity of the extract was calculated as follows: [formula] FI: Fluorescence of tested extract; blank extract (ribose or BSA); positive control; negative control. Based on the above measurements and calculation, the IC50, i.e. the concentration of the extract which inhibits AGEs formation by half, was calculated.

human skin explants = experiment: Whitening activity (ex vivo), Fontana-Masson staining for melanin quantification; assay type: cell-based; details: at 2%, topical, 7 days
Method: Fresh human skin explants were obtained from skin phototype III and VI donors, aged of 46±25 years. […] Kojic acid (Sigma-Aldrich) at 2% was topically applied and incubated under the same conditions, serving as positive control. The untreated condition was treated with the vehicle (distilled water). The medium was renewed every other day. After the end of culture, the skin explants were sampled and put in formalin before being dehydrated and embedded in paraffin for Fontana-Masson staining.
Skin explants fixed in formalin were dehydrated and embedded in paraffin. Sections of 4 μm thickness were dewaxed and then stained by Fontana-Masson silver method for melanin.
Images were collected using an Axio Observer Inverted fluorescence microscope (Zeiss) in bright field mode.
Melanin was quantified using two open source optical imaging software programs. Photomicrographs (jpeg format) of Fontana-Masson tissue sections were opened in GIMP-GNU Image Manipulation Program. The brown-black color signals corresponding to melanin grains on stained sections were selected, copied and pasted into a new image and saved as a jpeg file; this jpeg file consists solely of black/brown (melanin grains) on a white background. This image was subsequently opened using the ImageJ program. The image was then inverted and the mean intensity was obtained.

[3] = tested on: Normal Human Epidermal Keratinocytes (NHEKs); experiment: Antioxidant activity: ROS production in keratinocytes stressed with TBP (DCFH-DA probe); assay type: cell-based; details: at 200 μM
Method: A 96 wells-plate was coated with a collagen I solution at 50 μg/ml. Normal Human Epidermal Keratinocytes (NHEKs) were seeded at 20′000 cells per well with four replicates. Cells were incubated for 24 hours in complete medium (Epilife, Gibco) supplemented with Human keratinocyte growth supplements (HKGS) factor (Gibco) and 1% antibiotics (Sigma) at 37° C. with 5% CO2. […] The evolution of the fluorescence was followed for 1 hour.

[4] = Skin penetration by Raman spectroscopy (ex vivo); assay type: in vitro ADME, human; details: human
Method: At the end of the incubation period, the skin explants were frozen in Optimal Cutting Temperature (OCT; VWR) at −80° C. and then cut longitudinally using a cryotome with a thickness of 20 μm. For each explant, 3 tissue sections were selected and deposited on a CaF2 support for Raman imaging analysis. The processing of corrected data maps was performed by using a software based on least squares fitting method that operates in the Matlab environment. This method involves mathematical modeling of reference spectra in the overall spectral image to determine the contribution and distribution of these spectra within the image. The reference spectra were the modelled spectra of the following products: Aglycone, glucoside mixture, 4′-O-α-monoglucoside and untreated skin control.

O=C(O[C@@H]1Cc2c(O)cc(O)cc2O[C@@H]1c1cc(O)c(O)c(O)c1)c1cc(O)c(O)c(O)c1 [EGCG aglycone, epigallocatechin gallate]
L* on uneven skin tone area [1]: slight decrease of L*
global skin color whitening, 15 measurements on hemi face [1]: almost no whitening effect
IC50 [2]: 128 µM
Inhibition AGE's ([2]; tested concentration 0.109 mM): 31.95%
Inhibition AGE's ([2]; tested concentration 0.436 mM): 59.84%
Inhibition AGE's ([2]; tested concentration 2.180 mM): 93.56%
Inhibition AGE's ([2]; tested concentration 10.9 mM): 97.36%

O=c1cc(CO)occ1O [Kojic acid]
reduction of melanin content compared to untreated (human skin explants): 34%

Oc1ccc(C=Cc2cc(O)cc(O)c2)cc1 [Resveratrol]
reduction of ROS production ([3]; 24 h, NHEKs stressed with TBP 5 mM): 61%
ROS, Mean (% of untreated) ([3]; TBP column = 100, Untreated = 27.5): 39 % of untreated

N=C(N)NN [aminoguanidine, reference compound]
IC50 [2]: 326 µM

OCC1OC(Oc2c(O)cc(C3Oc4cc(O)cc(O)c4CC3O)cc2O)C(O)C(O)C1O (stereo not drawn) [epigallocatechin 4′-O-α-monoglucoside, Epigallocatechin 4′-O-α-monoglucoside]
bioavailability in the skin [4]: much higher bioavailability in the skin than the respective aglycones
